# Data as given in article PMC10845965, “Gold(I) ion and the phosphine ligand are necessary for the anti-Toxoplasma gondii activity of auranofin” (Microbiology Spectrum, 2024).
# Values joined by “and” are separate entries in the source; they are usually repeats but may differ in a detail not shown here. Equal values may be shown once. “Also recorded” adds a separate entry of the source. Read-outs that look alike come from different tables or passages of the source.
# How the values were obtained:
# RH T. gondii = assay: Plaque assay and IC50 determination; assay type: cell-based, Toxoplasma gondii; conditions: plaque assay, 5 days; for inhibition of T. gondii growth in vitro: 0–40 µM
# Description: We measured the inhibition of parasite growth by plaque assay as modified from a previously established method ([27], [28]). Confluent monolayers of HFF in six-well plates were inoculated with 1 × 10^2 parasites of RH T. gondii. Immediately after, each well received D10 containing specified concentrations of each compound. Plates were incubated undisturbed for 5 days at 37°C in a humidified incubator with 5% CO2. On the fifth day, each well was rinsed once with phosphate-buffered saline (PBS), fixed with 4% paraformaldehyde (15 min at room temperature), and stained with crystal violet for 2–3 min. Plaques (visualized as irregular clear areas of cell lysis against the violet background of intact host cells) were enumerated for each well. To generate the inhibition curve, plaque numbers (represented as a percentage of plaques relative to the no drug control) were plotted vs drug concentration. The IC50 value was calculated from the inhibitor vs normalized response curve with variable slope. The results represented the average of three independent IC50 assays ± standard error of the mean.
# HFF host cells = assay: Host cell viability and TD50 determination; assay type: cell-based, human; conditions: 5 days incubation, tetrazolium assay
# Description: Confluent monolayers of HFF host cells (approximately 1 × 10^4) plated in clear bottom 96-well plates were treated with twofold dilutions of compounds of interest. After 5 days of incubation, 15 µL of dye solution (tetrazolium salt) was added to each well. The plates were incubated at 37°C for 4 hours; then, the reaction was stopped to solubilize the formazan product (Cell Titer 96 Nonradioactive Cell Proliferation Assay Promega). Absorbance at 570 ʎ (A570) was recorded using a multimode microplate plate reader (Molecular Devices Spectramax i5, SoftMax Pro 7.0.2 Software). The A570 absorbance reading is directly proportional to the number of viable cells. The values are presented as percentages of cell viability relative to the untreated controls (defined as 100% survival) and plotted against the log of compound concentrations. The log (auranofin derivative) vs cell viability curve with variable slope was generated to calculate TD50 values.
# [1] = tested on: Leishmania spp. (promastigotes and amastigotes); design: method as in PMID 24328400; conditions: cited from earlier work
# T. gondii in HFF = assay: Egress assay (LDH release); assay type: cell-based, Toxoplasma gondii; conditions: 30 hours infection, then 40 min with A23187 5 µM, zaprinast 57 µM or auranofin 5 µM
# Description: The egress assay was modified from previously published methods to measure lactate dehydrogenase (LDH) content as a function of egress (host membrane damage induced by parasite egress) ([33], [34]). Confluent monolayers of HFF in a 24-well plate were inoculated with 5 × 10^5 parasites (freshly mechanically released by needle and filtered through a 3 µm filter) for 30 hours before each drug treatment in three technical triplicates. These infected HFF monolayers were rinsed with 37°C Ringer’s solution (Ward’s Science) three times and supplied with 5 µM calcium ionophore A23187 (ACROS), 57 µM Zaprinast (Alfa Aesar), 5 µM auranofin (Enzo Life Sciences), or DMSO control (all in 5 µl) for 40 min in 5% CO2 and 37°C. The culture supernatant was collected from wells and centrifuged at 4°C and 500 g for 5 min. The solution was kept at 4°C and assayed immediately for the LDH content. The A490 reading is directly proportional to a known amount of LDH (standard curve) (CytoTox 96 Nonradioactive Cytotoxicity Assay, Promega). Egress induced by each drug is presented as a relative value after subtracting control levels of LDH induced by DMSO alone (the solvent for all drugs included in this assay) from the levels of LDH induced by the drugs. A t-test to determine the statistical difference between the relative egress triggered by auranofin and A23187 or auranofin and Zaprinast from three independent experiments was used.
# [2] = tested on: YFP+ RH parasites (T. gondii) invading HFF; assay: Invasion assay; assay type: cell-based, Toxoplasma gondii
# Description: We performed invasion assays with or without pre-treatment of T. gondii tachyzoites with auranofin, as modified from previously described assays ([28][–][31]). We used RH parasites expressing YFP ([32]). First, we determine the best concentration of auranofin to achieve stable host cell morphology and viability (HFF) while maximizing the effect of auranofin in T. gondii by titration of auranofin (doses ranging from 1 to 5 µM). The best auranofin dose fitting our criteria was 3 µM. Therefore, we performed a modified invasion assay using 2.5 × 10^6 parasites freshly lysed YFP+ RH parasites ([29]) that were filtered and centrifuged before each assay as follows: […]
# After the 30-min invasion, all host cells were washed with PBS and fixed with 4% paraformaldehyde, blocked with 3% bovine serum albumin (BSA), and then incubated with anti-SAG-1 antibody (DG52) (David Sibley, Washington University in St. Louis) ([4]) for 1 hour, followed by incubation with goat anti-mouse IgG conjugated to Alexa-594 fluorophore (A19069, Thermo Fisher). For quantification, eight randomly selected fields (with a minimum of 300 parasites) were counted for each sample. […] The invasion rate was calculated by dividing the number of intracellular parasites by the total number of parasites counted.
# [3] = tested on: YFP+ RH parasites (T. gondii) in HFF; assay: Replication assay; assay type: cell-based, Toxoplasma gondii
# Description: Confluent HFF monolayers were infected with 5 × 10^5 YFP+ RH parasites in coverslips. Following 1-hour incubation at 37°C to allow for invasion, the monolayer was rinsed with PBS, and D10 in DMSO (control) or auranofin containing (2.5 µM) media was added back. Coverslips were then incubated for 24 hours to allow for parasite replication. Coverslips were then fixed in 4% paraformaldehyde and mounted with DAPI-containing mounting media. Parasites were identified as DAPI+/YFP+ under fluorescence microscopy. The number of parasites per parasitophorous vacuole was counted across 10 random fields of view per coverslip. At least 100 parasitophorous vacuoles (PV) per condition were counted from three independent experiments. Results were grouped into the following categories according to the number of parasites per PV: 1, 2, 4, and >4 parasites. A chi-square trend test was used to determine the statistical difference between the PV category of the control and auranofin treatment from three independent experiments.
# [4] = tested on: extracellular T. gondii RH parasites; assay: Parasite size by flow cytometry (forward scatter); assay type: cell-based, Toxoplasma gondii; conditions: auranofin 2.5 µM
# Description: (§1) A confluent monolayer of HFF was infected with purified RH parasites (freshly mechanically released by needle and filtered through a 3 µm filter). The monolayer remained undisturbed for 24 hours to allow for invasion and replication. On the day of treatment, extracellular parasites were mechanically released and harvested after differential centrifugation ([35]) at 35 × g for 5 minutes to prevent parasite loss before processing. The supernatant was then collected and centrifuged at 1,350 × g for 10 minutes to pellet the extracellular parasites. Parasites were plated in a 12-well plate (2.7 × 10^7 per well) into 1 mL of D10 in DMSO (control) or auranofin (2.5 µM) containing media and incubated for 24–48 hours at 37°C with 5% CO2 before collection.
# Parasite size after treatment with auranofin was determined by flow cytometry (forward scattering). At the end of each incubation time, parasites (1 × 10^5) were resuspended in 1 mL of PBS to prepare them for flow cytometry.
# [5] = tested on: extracellular T. gondii RH parasites; assay: Annexin V assay (phosphatidylserine externalization); assay type: cell-based, Toxoplasma gondii; conditions: auranofin 2.5 µM, 24 hours; control 11.2 ± 2.937
# Description: as §1
# Given the smaller size of parasites after auranofin treatment, we evaluated whether T. gondii death occurred by apoptosis via Annexin V assays (Invitrogen). After 24 hours of treatment, parasites were collected, washed with PBS, and resuspended in Annexin binding buffer (10 mM HEPES, 140 mM NaCl, and 2.5 mM CaCl2, pH 7.4) at a concentration of 10^6 parasites per mL. One hundred microliters of this parasite suspension was stained with Annexin V-Alexa fluor conjugate before flow cytometry analysis. A t-test was used to determine the statistical difference between control or auranofin treatment groups from three independent experiments.
# [6] = HFF infected with RH T. gondii, read-out: IC50 (inhibition of parasite growth)
# [7] = Fig 7, unit inferred, read-out: IC50
structure (smiles),measurement,setting,value
[Cl][Au].c1ccc(P(c2ccccc2)c2ccccc2)cc1 [Compound 31],IC50,RH T. gondii; [6],1.41 µM
same,TD50 (cytotoxicity in host cells),HFF host cells,178 µM
same,toxicity to host cells compared with auranofin,[1],"less toxic to host cells than auranofin and compounds 6, 10, and 39"
same,antiparasitic activity against Leishmania spp. compared with auranofin,[1]; extracellular and intracellular forms,higher IC50 than auranofin
[Cl][Au][PH](Cc1ccccc1)(c1ccccc1)c1ccccc1 [Compound 6],IC50,RH T. gondii; [7],0.45 µM
same,IC50,RH T. gondii; [6],0.46 µM
same,TD50 (cytotoxicity in host cells),HFF host cells,4.87 µM
"CCCOc1ccccc1-c1nc2nn[nH]c2c(=O)[nH]1 [Zaprinast, zaprinast]","relative egress level (LDH, normalized to DMSO)",T. gondii in HFF,0.3272 ± 0.009
same,"relative egress level (LDH, normalized to DMSO)",T. gondii in HFF; listed as zaprinast,0.2768 ± 0.034
CC(=O)OC[C@H]1O[C@@H]([S-])[C@H](OC(C)=O)[C@@H](OC(C)=O)[C@@H]1OC(C)=O.CCP(CC)CC.[Au+] [Auranofin],IC50,RH T. gondii; [7],0.56 µM
same,TD50 (cytotoxicity in host cells),HFF host cells,5.14 µM
same,invasion rate (T. gondii that successfully invaded host cells),"[2]; parasites pre-treated with auranofin 3 µM for 30 min before invasion, control 35%",18%
same,invasion rate (T. gondii that successfully invaded host cells),"[2]; without pre-treatment, auranofin 3 µM during 30 min invasion, control 59%",60%
same,host cell monolayer integrity,"[3]; HFF monolayer, 24 hours of auranofin treatment",did not show changes in the monolayer integrity
same,effect on parasite replication (parasites per parasitophorous vacuole),[3]; auranofin 2.5 µM for 24 hours after 1 hour invasion,did not inhibit parasite replication
same,"relative egress level (LDH, normalized to DMSO)",T. gondii in HFF,0.2768 ± 0.034
same,"relative egress level (LDH, normalized to DMSO)",T. gondii in HFF; listed as auranofin,0.2768 ± 0.03435 and 0.3272 ± 0.009
same,parasite size (FSC-H),"[4]; 24 hours, control 201.2 ± 4.064",152.7 ± 8.225
same,parasite size (FSC-H),"[4]; 48 hours, control 169.9 ± 66.25",123.5 ± 7.339
same,phosphatidylserine externalization (PS) by Annexin V assay,[5],29.16 ± 3.615 relative fluorescent units
"OC[C@H]1O[C@H]([S-])[C@H](O)[C@@H](O)[C@@H]1O.[Au+] [Aurothioglucose, aurothioglucose]",inhibition of T. gondii growth in vitro,RH T. gondii,did not display inhibitory activity
same,inhibition of T. gondii growth in vitro,RH T. gondii; listed as aurothioglucose,neither aurothioglucose nor aurothiomalate inhibited the growth
"O=C(O)CC([S-])C(=O)O.[Au+] (stereo not drawn) [Aurothiomalate, aurothiomalate]",inhibition of T. gondii growth in vitro,RH T. gondii,neither aurothioglucose nor aurothiomalate inhibited the growth; also recorded: did not display inhibitory activity
CNc1ccc2oc(C[C@H]3O[C@@]4(CC[C@H]3C)O[C@H]([C@H](C)C(=O)c3ccc[nH]3)[C@H](C)C[C@H]4C)nc2c1C(=O)O [A23187],"relative egress level (LDH, normalized to DMSO)",T. gondii in HFF,0.4533 ± 0.01148
